Results from patent US20240101576A1, “HETEROCYCLIC INHIBITORS OF EGFR AND/OR HER2, FOR USE IN THE TREATMENT OF CANCER” (Scorpion Therapeutics, Inc., priority 2020, published 2024).

Assays:
Type in all cases: cell-based
[1] = target: EGFR exon 19del (Ba/F3 cells) (Homo sapiens, UniProt P00533); assay: Inhibitor activity on EGFR-dependent cell growth (CellTiter-Glo, 72 h), Ba/F3 EGFR exon 19del; conditions: Ba/F3 EGFR exon 19del cell growth, read-out: BaF3 Del19 IC50
Description: (§1) Example A. Inhibitor Activity on EGFR-Dependent Cell Growth
(§2) Cell lines are generated by transducing Ba/F3 cells with retroviruses containing vectors with EGFR WT, EGFR L858R, EGFR exon 19del, EGFR L858R/C797S, EGFR exon 20 NPG Ins D770_N771, EGFR exon 20 ASV Ins V769_D770, EGFR exon 20 SVD Ins D770_N771, or EGFR exon 20 FQEA Ins A763_V764 genes and a puromycin selection marker. Transduced cells are selected with puromycin for 7 days and are then be transferred into culture media without Interleukin 3 (IL3). EGFR WT cells are maintained with supplemental EGF. Surviving cells are confirmed to express EGFR by Western blot and maintained as a pool. The IC50 date were included in Table 6 and Table 7.
(§3) 1.1 Cells are harvested from flask into cell culture medium and the cell number counted.
(§4) 1.2 Cells are diluted with culture medium to the desired density and 40 μL of cell suspension is added into each well of 384-well cell culture plate and the seeding density is 800 (FQEA, exon 19del), 600 (WT, NPG, L858R/C797S), or 400 (ASV, SVD, L858R) cells/well.
(§5) 2 Compound Preparation and Treatment
(§6) 2.1 Test compounds are dissolved to 10 mM in a DMSO stock solution. 45 μL of stock solution is transferred to a 384 polypropylene plate (pp-plate). Perform 3-fold, 10-point dilution via transferring 15 μL compound into 30 μL DMSO using a TECAN (EVO200) liquid handler.
(§7) 2.2 Spin plates at room temperature at 1,000 RPM for 1 minute.
(§8) 2.3 Transfer 120 nL of diluted compound from compound source plate into the cell plate.
(§9) 2.4 After compound treatment for 72 hours, perform CTG detection for compound treatment plates as described in “Detection” section.
(§10) 3.1 Plates are removed from incubators and equilibrated at room temperature for 15 minutes.
(§11) 3.2 Thaw the CellTiter Glo reagents and allow to equilibrate to room temperature before the experiment.
(§12) 3.3 Add 40 μL of CellTiter-Glo reagent into each well (at 1:1 to culture medium). Then place the plates at room temperature for 30 min followed by reading on EnVision.
(§13) 4.1 Inhibition activity is calculated following the formula below:
(§14) % Inhibition=100×(LumHC−LumSample)/(LumHC−LumLC) • where HC is obtained from cells treated with 0.1% DMSO only; and LC is obtained from culture medium only.
(§15) 4.2 2. Calculate the IC50 by fitting the Curve using Xlfit (v5.3.1.3), equation 201.
(§16) Y=Bottom+(Top−Bottom)/(1+10^((Log IC50−X)*HillSlope))

[2] = target: T1, EGFR exon 20 FQEA Ins A763_V764 (Ba/F3 cells) (Homo sapiens, UniProt P00533, INS763FQEA); assay: Inhibitor activity on EGFR-dependent cell growth (CellTiter-Glo, 72 h), Ba/F3 EGFR exon 20 FQEA Ins; conditions: read-out: BaF3 FQEA IC50
T1 construct: expressed in transfected cells; host or cells: Ba/F3 (murine pro-B cells), retroviral transduction, puromycin selection, IL3-independent pool
Method in brief: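 72 h proliferation, Ba/F3 EGFR mutants (no IL3, puromycin-selected pools, EGFR confirmed by Western blot). Seeding of 400 L858R, 600 L858R/C797S and 800 exon 19del/FQEA cells per well. CellTiter-Glo used; controls were […] (high) and medium alone (low).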

[3] = target: T2, EGFR exon 20 NPG Ins D770_N771 (Ba/F3 cells) (Homo sapiens, UniProt P00533, INS770NPG); assay: Inhibitor activity on EGFR-dependent cell growth (CellTiter-Glo, 72 h), Ba/F3 EGFR exon 20 NPG Ins; conditions: read-out: BaF3 NPG IC50
T2 construct: expressed in transfected cells; host or cells: Ba/F3 (murine pro-B cells), retroviral transduction, puromycin selection, IL3-independent pool
Method in brief: (§17)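 IC50s derive from a sigmoidal dose–response fit of CellTiter-Glo signal. The signal was normalised between […]-treated cells and cell-free medium. Ba/F3 mutant-EGFR cells, seeded at 400–800/well depending on the line, had 72 h of exposure to a 10-point, 3-fold compound series.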

EGFR WT (Ba/F3 cells) = target: T3, EGFR WT (Ba/F3 cells) (Homo sapiens, UniProt P00533); assay: Inhibitor activity on EGFR-dependent cell growth (CellTiter-Glo, 72 h), Ba/F3 EGFR WT; conditions: read-out: BaF3 WT IC50
T3 construct: expressed in transfected cells; host or cells: Ba/F3 (murine pro-B cells), retroviral transduction, puromycin selection, maintained with EGF
Method in brief: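 This growth assay used Ba/F3 cells that depend on wild-type EGFR and are kept in EGF without IL3. Compounds were made up as 10 mM DMSO stocks and diluted 3-fold over 10 points. 120 nL went onto 600 cells/well. After 72 hours, 40 μL CellTiter-Glo was added and luminescence read on EnVision after 30 min.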

[4] = target: T4, EGFR exon 20 ASV Ins V769_D770 (Ba/F3 cells) (Homo sapiens, UniProt P00533, INS769ASV); assay: Inhibitor activity on EGFR-dependent cell growth (CellTiter-Glo, 72 h), Ba/F3 EGFR exon 20 ASV Ins; conditions: read-out: BaF3 ASV IC50
T4 construct: expressed in transfected cells; host or cells: Ba/F3 (murine pro-B cells), retroviral transduction, puromycin selection, IL3-independent pool
T4 sequence (P00533 with tags, fused parts or gaps INS769ASV): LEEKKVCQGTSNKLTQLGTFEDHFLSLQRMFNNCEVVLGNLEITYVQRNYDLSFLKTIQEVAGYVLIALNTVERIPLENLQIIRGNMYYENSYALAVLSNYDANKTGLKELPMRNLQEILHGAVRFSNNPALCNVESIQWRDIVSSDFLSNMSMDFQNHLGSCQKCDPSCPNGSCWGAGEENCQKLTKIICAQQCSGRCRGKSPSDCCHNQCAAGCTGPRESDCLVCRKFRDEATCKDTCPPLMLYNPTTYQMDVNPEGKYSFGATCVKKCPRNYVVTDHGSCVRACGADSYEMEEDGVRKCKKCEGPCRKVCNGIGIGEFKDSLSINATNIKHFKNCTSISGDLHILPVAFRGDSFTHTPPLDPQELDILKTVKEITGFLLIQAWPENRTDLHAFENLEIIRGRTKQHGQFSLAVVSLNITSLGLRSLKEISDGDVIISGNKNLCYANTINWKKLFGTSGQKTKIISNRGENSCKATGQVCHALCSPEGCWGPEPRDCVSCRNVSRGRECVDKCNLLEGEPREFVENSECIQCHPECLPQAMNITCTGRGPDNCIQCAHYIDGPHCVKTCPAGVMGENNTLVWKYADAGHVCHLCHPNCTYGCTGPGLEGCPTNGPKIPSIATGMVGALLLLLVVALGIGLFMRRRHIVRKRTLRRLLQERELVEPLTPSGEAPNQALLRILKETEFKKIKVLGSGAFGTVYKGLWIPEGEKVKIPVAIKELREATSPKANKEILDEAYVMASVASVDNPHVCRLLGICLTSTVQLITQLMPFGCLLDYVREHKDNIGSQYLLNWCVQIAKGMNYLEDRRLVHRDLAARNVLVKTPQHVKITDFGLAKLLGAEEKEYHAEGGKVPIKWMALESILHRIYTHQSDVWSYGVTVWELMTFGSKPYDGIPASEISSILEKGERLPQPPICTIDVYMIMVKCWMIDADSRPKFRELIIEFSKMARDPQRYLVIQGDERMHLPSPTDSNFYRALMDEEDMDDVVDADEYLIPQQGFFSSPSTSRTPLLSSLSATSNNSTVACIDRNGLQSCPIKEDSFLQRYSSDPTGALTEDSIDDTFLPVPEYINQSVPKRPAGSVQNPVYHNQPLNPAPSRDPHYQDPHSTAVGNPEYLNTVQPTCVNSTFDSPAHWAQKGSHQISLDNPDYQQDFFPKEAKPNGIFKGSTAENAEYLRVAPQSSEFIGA
Method in brief: as §17

EGFR L858R (Ba/F3 cells) = target: T5, EGFR L858R (Ba/F3 cells) (Homo sapiens, UniProt P00533, L858R); assay: Inhibitor activity on EGFR-dependent cell growth (CellTiter-Glo, 72 h), Ba/F3 EGFR L858R; conditions: read-out: BaF3 L858R IC50
T5 construct: expressed in transfected cells; host or cells: Ba/F3 (murine pro-B cells), retroviral transduction, puromycin selection, IL3-independent pool
T5 sequence (P00533 25-1210 L858R): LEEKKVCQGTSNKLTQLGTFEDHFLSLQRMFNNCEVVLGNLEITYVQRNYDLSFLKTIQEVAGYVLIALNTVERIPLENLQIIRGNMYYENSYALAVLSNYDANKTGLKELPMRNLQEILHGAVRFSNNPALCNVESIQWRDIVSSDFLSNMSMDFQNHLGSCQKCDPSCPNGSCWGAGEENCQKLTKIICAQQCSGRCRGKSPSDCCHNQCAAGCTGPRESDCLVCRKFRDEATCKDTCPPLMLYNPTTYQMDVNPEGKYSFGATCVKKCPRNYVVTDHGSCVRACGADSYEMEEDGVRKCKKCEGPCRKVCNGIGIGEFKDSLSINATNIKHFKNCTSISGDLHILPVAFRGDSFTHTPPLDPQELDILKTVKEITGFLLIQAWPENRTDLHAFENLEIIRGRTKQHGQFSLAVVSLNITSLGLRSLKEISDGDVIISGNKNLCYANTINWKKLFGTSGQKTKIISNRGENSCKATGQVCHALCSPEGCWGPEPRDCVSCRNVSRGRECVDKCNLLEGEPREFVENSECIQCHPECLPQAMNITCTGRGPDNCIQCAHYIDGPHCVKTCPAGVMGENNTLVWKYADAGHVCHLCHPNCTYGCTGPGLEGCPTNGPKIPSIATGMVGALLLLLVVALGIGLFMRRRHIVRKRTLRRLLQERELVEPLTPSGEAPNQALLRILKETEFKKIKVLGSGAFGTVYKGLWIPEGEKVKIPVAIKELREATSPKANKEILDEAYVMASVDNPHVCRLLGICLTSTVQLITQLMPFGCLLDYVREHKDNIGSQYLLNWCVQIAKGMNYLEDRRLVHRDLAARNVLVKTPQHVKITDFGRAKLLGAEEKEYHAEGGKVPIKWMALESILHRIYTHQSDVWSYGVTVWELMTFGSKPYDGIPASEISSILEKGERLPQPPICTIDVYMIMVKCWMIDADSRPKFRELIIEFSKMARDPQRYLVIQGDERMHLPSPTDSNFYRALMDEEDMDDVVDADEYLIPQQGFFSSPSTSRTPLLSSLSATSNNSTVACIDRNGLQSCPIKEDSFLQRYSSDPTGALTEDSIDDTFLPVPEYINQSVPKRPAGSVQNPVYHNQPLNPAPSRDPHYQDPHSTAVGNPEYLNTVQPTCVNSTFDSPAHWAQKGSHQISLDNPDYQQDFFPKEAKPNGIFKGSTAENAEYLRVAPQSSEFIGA
Description: as §1, §2, §3, §4, §5, §6, §7, §8, §9, §10, §11, §12, §13, §14, §15, §16

[5] = target: T6, EGFR exon 20 SVD Ins D770_N771 (Ba/F3 cells) (Homo sapiens, UniProt P00533, INS770SVD); assay: Inhibitor activity on EGFR-dependent cell growth (CellTiter-Glo, 72 h), Ba/F3 EGFR exon 20 SVD Ins; conditions: read-out: BaF3 SVD IC50
T6 construct: expressed in transfected cells; host or cells: Ba/F3 (murine pro-B cells), retroviral transduction, puromycin selection, IL3-independent pool
T6 sequence (P00533 with tags, fused parts or gaps INS770SVD): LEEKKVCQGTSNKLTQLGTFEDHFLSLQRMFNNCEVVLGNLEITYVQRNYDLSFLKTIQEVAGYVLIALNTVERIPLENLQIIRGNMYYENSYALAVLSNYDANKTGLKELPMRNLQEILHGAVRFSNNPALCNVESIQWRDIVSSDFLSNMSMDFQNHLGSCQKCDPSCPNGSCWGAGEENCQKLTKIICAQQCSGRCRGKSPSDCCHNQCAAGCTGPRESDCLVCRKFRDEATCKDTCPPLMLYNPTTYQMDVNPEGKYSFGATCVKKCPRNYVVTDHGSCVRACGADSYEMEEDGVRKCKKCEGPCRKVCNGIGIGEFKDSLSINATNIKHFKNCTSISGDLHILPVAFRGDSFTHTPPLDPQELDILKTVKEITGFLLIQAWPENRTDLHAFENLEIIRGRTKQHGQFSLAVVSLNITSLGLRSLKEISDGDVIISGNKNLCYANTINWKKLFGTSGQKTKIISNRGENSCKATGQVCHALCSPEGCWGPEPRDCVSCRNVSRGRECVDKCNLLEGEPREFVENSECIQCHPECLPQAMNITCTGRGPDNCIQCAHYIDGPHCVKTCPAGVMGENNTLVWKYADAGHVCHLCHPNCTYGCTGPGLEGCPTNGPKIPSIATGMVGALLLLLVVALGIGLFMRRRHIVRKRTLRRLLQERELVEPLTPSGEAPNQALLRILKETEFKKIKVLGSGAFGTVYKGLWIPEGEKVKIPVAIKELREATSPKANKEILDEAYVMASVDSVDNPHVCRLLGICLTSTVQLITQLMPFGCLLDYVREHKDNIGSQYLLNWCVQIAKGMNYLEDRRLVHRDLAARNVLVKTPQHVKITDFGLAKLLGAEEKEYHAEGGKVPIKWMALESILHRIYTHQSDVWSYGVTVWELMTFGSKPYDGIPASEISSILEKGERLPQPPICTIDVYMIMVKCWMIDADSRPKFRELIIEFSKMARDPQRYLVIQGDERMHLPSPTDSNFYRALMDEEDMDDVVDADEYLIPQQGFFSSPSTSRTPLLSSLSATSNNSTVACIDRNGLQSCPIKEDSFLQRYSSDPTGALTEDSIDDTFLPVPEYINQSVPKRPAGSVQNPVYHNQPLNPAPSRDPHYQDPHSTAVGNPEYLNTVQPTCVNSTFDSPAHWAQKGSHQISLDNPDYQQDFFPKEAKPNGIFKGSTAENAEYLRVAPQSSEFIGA
Method in brief: as §17

[6] = target: T2, EGFR exon 20 NPG Ins D770_N771 (Ba/F3 cells); assay: Inhibitor activity on EGFR phosphorylation (pEGFR AlphaLISA, 2 h), Ba/F3 EGFR exon 20 NPG Ins
Description: Example B. Inhibitor Activity on EGFR phosphorylation (pEGFR)
EGFR mutant Ba/F3 cells were generated by transduction with retrovirus containing vectors expressing EGFR L858R, EGFR exon 19del, EGFR L858R/C797S, EGFR exon 20 NPG Ins D770_N771, EGFR exon 20 ASV Ins V769_D770, or EGFR exon 20 SVD Ins D770_N771 genes along with a puromycin selection marker. Transduced cells are selected with puromycin for 7 days and are then be transferred into culture media without Interleukin 3 (IL3). Surviving cells are confirmed to express EGFR by Western blot and maintained as a pool. CUTO14 cells were obtained from Dr. Robert C. Doebele at the University of Colorado. The IC50 date are included in Table 6 and Table 7.
as §3
1.2 Cells are diluted with culture medium to the desired density and 40 μL of cell suspension is added into each well of 384-well cell culture plate and the seeding density is 50K cells/well (Ba/F3) or 12.5K cells/well (CUTO14).
as §5, §6, §7
2.3 Transfer 5 nL of diluted compound from compound source plate into the cell plate.
2.4 After compound treatment for 2 hours, perform pEGFR detection by AlphaLISA for compound treatment plates as described in “Detection” section.
3 Detection by pEGFR AlphaLISA (Perkin-Elmer)
3.1 Plates are removed from incubators and equilibrated at room temperature for 10 minutes, and media was removed
3.2 10 μL of lysis buffer is added and plates shaken at 600 rpm for 1 hr.
3.3 Prepare acceptor mix just before use and dispense 5 μL of acceptor mix to all the wells. Shake 350 rpm for Ihr in the dark
3.4 Prepare donor mix under low light conditions prior to use. Dispense 5 μL of donor mix to all the wells. Mix well on the shaker, seal and wrap in aluminum foil and incubate 1.5 hrs at room temperature in the dark
3.5 Transfer 18.5 μL mixture to OptiPlate 384, and read using an Envision. The IC50 date were included in Table 6 and Table 7.

[7] = target: T4, EGFR exon 20 ASV Ins V769_D770 (Ba/F3 cells); assay: Inhibitor activity on EGFR phosphorylation (pEGFR AlphaLISA, 2 h), Ba/F3 EGFR exon 20 ASV Ins; conditions: EGFR phosphorylation, AlphaLISA, 2 hours; read-out: ASV IC50 (pEGFR)
Method in brief: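 IC50 values reflect inhibition of cellular EGFR phosphorylation, measured by AlphaLISA in lysates. Engineered Ba/F3 pools expressing mutant EGFR, selected with puromycin and cultured IL3-free, or CUTO14 cells, were exposed to compound for 2 hours.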

EGFR exon 19del (Ba/F3 cells), sequence (P00533 with tags, fused parts or gaps DEL746-750): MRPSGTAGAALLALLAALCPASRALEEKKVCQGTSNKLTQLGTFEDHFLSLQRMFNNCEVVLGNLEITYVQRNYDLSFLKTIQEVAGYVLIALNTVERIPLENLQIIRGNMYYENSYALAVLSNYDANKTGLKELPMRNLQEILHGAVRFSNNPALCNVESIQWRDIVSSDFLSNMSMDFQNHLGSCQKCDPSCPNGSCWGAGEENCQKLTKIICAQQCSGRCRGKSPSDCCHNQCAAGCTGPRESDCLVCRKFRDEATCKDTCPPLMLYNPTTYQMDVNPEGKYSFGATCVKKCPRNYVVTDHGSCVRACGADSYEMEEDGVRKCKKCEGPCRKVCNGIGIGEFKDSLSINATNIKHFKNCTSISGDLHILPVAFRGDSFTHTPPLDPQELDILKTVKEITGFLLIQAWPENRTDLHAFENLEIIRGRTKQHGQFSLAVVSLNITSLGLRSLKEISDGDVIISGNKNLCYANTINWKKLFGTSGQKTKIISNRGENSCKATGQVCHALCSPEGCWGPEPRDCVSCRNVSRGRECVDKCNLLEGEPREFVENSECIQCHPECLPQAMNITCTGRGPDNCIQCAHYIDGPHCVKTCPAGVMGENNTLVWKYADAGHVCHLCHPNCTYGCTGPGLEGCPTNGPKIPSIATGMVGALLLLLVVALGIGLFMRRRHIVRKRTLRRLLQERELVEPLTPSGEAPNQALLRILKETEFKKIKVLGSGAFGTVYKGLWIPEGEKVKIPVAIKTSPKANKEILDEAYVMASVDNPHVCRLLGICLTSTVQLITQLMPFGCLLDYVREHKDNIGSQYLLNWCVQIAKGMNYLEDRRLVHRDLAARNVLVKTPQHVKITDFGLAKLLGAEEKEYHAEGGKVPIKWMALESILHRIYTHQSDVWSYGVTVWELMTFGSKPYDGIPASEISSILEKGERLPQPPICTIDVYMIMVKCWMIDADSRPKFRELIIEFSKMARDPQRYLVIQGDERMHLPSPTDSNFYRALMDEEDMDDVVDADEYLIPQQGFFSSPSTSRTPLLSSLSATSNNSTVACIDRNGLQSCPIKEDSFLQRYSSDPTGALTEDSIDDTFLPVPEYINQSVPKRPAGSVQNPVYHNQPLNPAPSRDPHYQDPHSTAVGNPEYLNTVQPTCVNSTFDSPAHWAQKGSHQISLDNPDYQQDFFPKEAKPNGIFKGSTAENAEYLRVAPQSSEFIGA

Row | Compound | IC50 [1] | IC50 [2] | IC50 [3] | IC50 (EGFR WT (Ba/F3 cells)) | IC50 [4] | IC50 (EGFR L858R (Ba/F3 cells)) | IC50 [5] | IC50 [6] | IC50 [7]
1 | COc1c(Cl)cccc1Nc1c(-c2ccnc3ccc(OC4CC(F)(F)C4)nc23)[nH]c2c1C(=O)NCC2 [Compound 766, 3-[(3-chloro-2-methoxyphenyl)amino]-2-[6-(3,3-difluorocyclobutoxy)-1,5-naphthyridin-4-yl]-1H,5H,6H,7H-pyrrolo[3,2-c] pyridin-4-one] | < 100 nM | < 100 nM | < 100 nM | 100 to 1000 nM | < 100 nM | < 100 nM | < 100 nM | – | –
3 | COCC[C@@H]1CNC(=O)c2c1[nH]c(-c1ccnc(C)n1)c2Nc1cccc(F)c1OC [453a] | < 100 nM | – | 100 to 1000 nM | > 1000 nM | 100 to 1000 nM | < 100 nM | 100 to 1000 nM | – | –
4 | COc1c(F)cccc1Nc1c(-c2ccnc3ccoc23)[nH]c2c1C(=O)NCC2 [Compound 553, 3-[(3-fluoro-2-methoxyphenyl)amino]-2-{furo[3,2-b]pyridin-7-yl}-1H,5H,6H,7H-pyrrolo[3,2-c]pyridin-4-one] | < 100 nM | < 100 nM | – | 100 to 1000 nM | < 100 nM | < 100 nM | < 100 nM | – | –
5 | Cc1c(F)cccc1Nc1c(-c2ccnc(N)c2F)[nH]c2c1C(=O)NCC2 [Compound 692, 2-(2-amino-3-fluoropyridin-4-yl)-3-[(3-fluoro-2-methylphenyl)amino]-1H,5H,6H,7H-pyrrolo[3,2-c]pyridin-4-one] | – | 100 to 1000 nM | 100 to 1000 nM | 100 to 1000 nM | 100 to 1000 nM | – | 100 to 1000 nM | < 100 nM | 100 to 1000 nM
6 | COc1nccc(-c2[nH]c3c(c2Nc2cccc(Cl)c2OC)C(=O)NCC3)n1 [compound 286] | – | > 1000 nM | > 1000 nM | > 1000 nM | > 1000 nM | – | > 1000 nM | 100 to 1000 nM | > 1000 nM
7 | COc1c(F)cccc1Nc1c(-c2ccnc(N)c2F)[nH]c2c1C(=O)NCC2 [Compound 687, 2-(2-amino-3-fluoropyridin-4-yl)-3-[(3-fluoro-2-methoxyphenyl)amino]-1H,5H,6H,7H-pyrrolo[3,2-c]pyridin-4-one] | – | 100 to 1000 nM | 100 to 1000 nM | > 1000 nM | 100 to 1000 nM | – | 100 to 1000 nM | < 100 nM | 100 to 1000 nM
8 | Cc1ccc2nccc(-c3[nH]c4c(c3Nc3cccc(F)c3C)C(=O)NCC4)c2n1 [Compound 810, 3-[(3-fluoro-2-methylphenyl)amino]-2-(6-methyl-1,5-naphthyridin-4-yl)-1H,5H,6H,7H-pyrrolo[3,2-c]pyridin-4-one] | < 100 nM | < 100 nM | – | 100 to 1000 nM | < 100 nM | < 100 nM | < 100 nM | – | –
9 | Nc1nccc(-c2[nH]c3c(c2Nc2cccc(F)c2F)C(=O)NCC3)n1 [compound 202] | – | 100 to 1000 nM | 100 to 1000 nM | 100 to 1000 nM | 100 to 1000 nM | – | 100 to 1000 nM | < 100 nM | < 100 nM
10 | CNc1nccc(-c2[nH]c3c(c2Nc2cccc(Cl)c2OC)C(=O)NCC3)n1 [compound 108] | – | 100 to 1000 nM | < 100 nM | 100 to 1000 nM | < 100 nM | – | < 100 nM | < 100 nM | < 100 nM
11 | COCC[C@@H]1CNC(=O)c2c1[nH]c(-c1ccncc1F)c2Nc1cccc(F)c1C [compound 823] | < 100 nM | < 100 nM | – | < 100 nM | < 100 nM | < 100 nM | < 100 nM | – | –
12 | COc1c(Cl)cccc1Nc1c(-c2ccnc(NC(=O)C3CC3)n2)[nH]c2c1C(=O)NCC2 [compound 221] | – | 100 to 1000 nM | 100 to 1000 nM | > 1000 nM | 100 to 1000 nM | – | 100 to 1000 nM | < 100 nM | 100 to 1000 nM
